Results published in patent US20080004695A1, “EVEROLIMUS/PIMECROLIMUS-ELUTING IMPLANTABLE MEDICAL DEVICES” (Abbott Cardiovascular Systems Inc., priority 2006, published 2008).

Columns and labels:
[1] = 24 hour release of everolimus and pimecrolimus from dual-coated stent in porcine serum; type: physicochemical; settings: EVAL-based dual-coated 12 mm Vision stent
Description: Using the method set forth in Example 1, a 12 mm Vision™ stent was similarly coated with everolimus and pimecrolimus. The 24 hour release of everolimus and pimecrolimus in porcine serum was then measured using methods known in the art. […] For pimecrolimus, 12.4 μg of an expected 60.6 μg of pimecrolimus was released over 24 hours resulting in 20.5% release.

[2] = in vivo release from PVDF-HFP-based coated stent implanted in a pig; settings: PVDF-HFP matrix stent implanted in a pig, day 7
Description: A 12 mm Vision™ stent was cleaned in a bath of isopropyl alcohol and treated in a plasma cleaner to strip the top layer of molecules from the stent for better coat adhesion. The stent was then spray-coated with a primer solution consisting of 2% PBMA. The coated stent was dried in a convection oven at 80° C. for 0.5 hours.
The stent was then spray-coated with a drug reservoir solution consisting of PVDF-HFP, pimecrolimus and everolimus. A drug:polymer ratio of 1:3.5 of both pimecrolimus and everolimus to PVDF-HFP was used to coat the stent in order to obtain 64 μg of pimecrolimus and 64 μg of everolimus in the final coating. Spray coating parameters and the solvent were identical to those used for coating with the primer layer.
The stent was implanted in a pig and 1, 3 and 7 day release rates were obtained and compared with 24 hour release rates in porcine serum. […] By day 7, release of both drugs was 30%.

% release over 24 hours [1] [%]	amount released over 24 hours [1] [µg]	in vivo percent release [2] [%]	SMILES
19.7	12.2	30	CO[C@H]1C[C@@H]2CC[C@@H](C)[C@@](O)(O2)C(=O)C(=O)N2CCCC[C@H]2C(=O)O[C@H]([C@H](C)C[C@@H]2CC[C@@H](OCCO)[C@H](OC)C2)CC(=O)[C@H](C)/C=C(\C)[C@@H](O)[C@@H](OC)C(=O)[C@H](C)C[C@H](C)/C=C/C=C/C=C/1C [everolimus]
20.5	12.4	30	CC[C@@H]1/C=C(\C)C[C@H](C)C[C@H](OC)[C@H]2O[C@@](O)(C(=O)C(=O)N3CCCC[C@H]3C(=O)O[C@H](/C(C)=C/[C@@H]3CC[C@H](Cl)[C@H](OC)C3)[C@H](C)[C@@H](O)CC1=O)[C@H](C)C[C@@H]2OC [pimecrolimus]
